Experimental findings from patent US20250154197A1, “LIPOLYTIC PEPTIDES” (FUNDACIÓ HOSPITAL UNIVERSITARI VALL D'HEBRON - INSTITUT DE …, priority 2021, published 2025) are described below.

Assay type in all cases: cell-based
In assay [1] the test system is human subcutaneoous mature adipocytes. The assay is described as follows: Lipolytic activity: glycerol release in human adipocytes (Lipolysis Assay kit). Conditions: human subcutaneous mature adipocytes.
A further assay deals with 3T3-L1 mouse adipocytes. The assay is described as follows: Lipolytic activity: glycerol release in differentiated 3T3-L1 mouse adipocytes (12 h). Conditions: for Lipolysis Activity measured as Glycerol (μM) release in media: 3T3-L1 mouse adipocytes, 12 h. As to the method: JCRB9014-A) from Tebu-Bio (Tebu-bio, Barcelona, Spain). Briefly, mouse adipocytes (3T3-L1 cells) were cultured in 48 well plates as described previously (Saez-Lopez et al., 2020). Adipocytes were differentiated using cell culture reagents purchased from Tebu-Bio and following the manufacturer's instructions. At day of differentiation cells were treated in duplicates with vehicle (DMSO), Caffeine (100 μg/ml), and each of the peptides at the specified doses in Table 6a below. At the end of the experiment (12 h), supernatants were collected and glycerol content was measured using a Glycerol Assay Kit (Sigma) following manufacturer's instructions.

Assay [2] relates to differentiated human subcutaneous adipocytes. Briefly: Time course lipolytic activity: glycerol release at 120' and 240'. The note with it: for Lipolytic activity measured as glycerol release: 10 ug/ml, human subcutaneous adipocytes. As to the method: At the end of the experiment, supernatants were collected and glycerol content was measured using a Lipolysis Assay kit from Tebu-bio (LIP-1—NC) following the manufacturer's instructions.

Where no end group is shown, it is not given here. [ ]: non-standard residue; d: D form.

“DPEGVIF (H-[dD][dP][dE]G[dV][dI][dF]-OH; SMILES CC[C@@H](C)[C@@H](NC(=O)[C@H](NC(=O)CNC(=O)[C@@H](CCC(=O)O)NC(=O)[C@H]1CCCN1C(=O)[C@H](N)CC(=O)O)C(C)C)C(=O)N[C@H](Cc1ccccc1)C(=O)O) [GP3D-7 I II X, N-term NH2, C-term COOH]”: the “Lipolysis Activity measured as Glycerol (μM) release in media” value (shortened to “Lipolysis Activity measured as Glycerol”) is 17.04 µM in assay [1] (25 μg/ml); 34.80 µM in assay [1] (50 μg/ml); 48.09 µM in assay [1] (75 μg/ml); 58.31 µM in assay [1] (100 μg/ml); 391 µM in the assay on 3T3-L1 mouse adipocytes (1 μg/ml); 405 µM in the assay on 3T3-L1 mouse adipocytes (10 μg/ml). For the same compound, the “Lipolysis Activity measured as Glycerol” value in the assay with 3T3-L1 mouse adipocytes (100 μg/ml) stood at 313 µM.
As to “TWDPEGVIFY [GP3L, comparative L-decapeptide; N-term NH2, C-term COOH, reference compound]”, the figures for the “Lipolysis Activity measured as Glycerol” value with 3T3-L1 mouse adipocytes (1 μg/ml), with 3T3-L1 mouse adipocytes (10 μg/ml) and with 3T3-L1 mouse adipocytes (100 μg/ml) were 230 µM, 250 µM and 360 µM, respectively. The “Lipolytic activity measured as glycerol release” value (from here on “Lipolytic activity measured”) in assay [2] (120 min, listed as SEQ ID NO: 2) is −0.5343 UM; in assay [2] (240 min, listed as SEQ ID NO: 2), 17.7363 UM.
Turning to “TWDPEGVIFY [GP3D] ([dT][dW][dD][dP][dE]G[dV][dI][dF][dY]) [N-term NH2, C-term COOH]”, the figures for the “Lipolysis Activity measured as Glycerol” value in the assay with 3T3-L1 mouse adipocytes (1 μg/ml), with 3T3-L1 mouse adipocytes (10 μg/ml) and in the assay with 3T3-L1 mouse adipocytes (100 μg/ml) were 538 µM, 574 µM and 580 µM, respectively. Further, the “increase in lipolytic activity compared to the L version” value with 3T3-L1 mouse adipocytes (D-decapeptide vs L version (SEQ ID NO: 2)) is “about 2 fold”. The “Lipolytic activity measured” value in assay [2] (120 min, listed as SEQ ID NO: 3) was 24.8964 UM; in assay [2] (240 min, listed as SEQ ID NO: 3) it was 90.1603 UM. The “fold more efficient in inducing lipolysis vs caffeine or SEQ ID NO:2” value in assay [2] (time 120', 10 μg/ml) was “more than 24 fold”; in assay [2] (time 240', 10 μg/ml), “more than 5 fold”.
With “DPEGVIY (H-[dD][dP][dE]G[dV][dI][dY]-OH; SMILES CC[C@@H](C)[C@@H](NC(=O)[C@H](NC(=O)CNC(=O)[C@@H](CCC(=O)O)NC(=O)[C@H]1CCCN1C(=O)[C@H](N)CC(=O)O)C(C)C)C(=O)N[C@H](Cc1ccc(O)cc1)C(=O)O) [GP3D-7 I II IX, N-term NH2, C-term COOH]”, the “Lipolysis Activity measured as Glycerol” value was determined as 19.68 µM in assay [1] (25 μg/ml); 34.01 µM in assay [1] (50 μg/ml); 46.62 µM in assay [1] (75 μg/ml); 56.08 µM in assay [1] (100 μg/ml); 417 µM in the assay on 3T3-L1 mouse adipocytes (1 μg/ml); 380 µM with 3T3-L1 mouse adipocytes (10 μg/ml). Also, the “Lipolysis Activity measured as Glycerol” value with 3T3-L1 mouse adipocytes (100 μg/ml) came to 346 µM.
As to “NDPEGLY (H-[dN][dD][dP][dE]G[dL][dY]-OH; SMILES CC(C)C[C@@H](NC(=O)CNC(=O)[C@@H](CCC(=O)O)NC(=O)[C@H]1CCCN1C(=O)[C@@H](CC(=O)O)NC(=O)[C@H](N)CC(N)=O)C(=O)N[C@H](Cc1ccc(O)cc1)C(=O)O) [GP3D-DM5, N-term NH2, C-term COOH]”, the “Lipolysis Activity measured as Glycerol” value in assay [1] (25 μg/ml) is 21.84 µM; in assay [1] (50 μg/ml) it was 39.18 µM; in assay [1] (75 μg/ml), 47.07 µM; in assay [1] (100 μg/ml), 55.12 µM; in the assay with 3T3-L1 mouse adipocytes (100 μg/ml), 326 µM.
For the compound “Ac-TWDPEGVIFY (Ac-[dT][dW][dD][dP][dE]G[dV][dI][dF][dY]) [GP3D-Ac, N-term CH3CONH, C-term COOH]”, the “Lipolysis Activity measured as Glycerol” value in assay [1] (25 μg/ml) was 16.56 µM; in assay [1] (50 μg/ml), 36.41 µM; in assay [1] (75 μg/ml), 43.36 µM; in assay [1] (100 μg/ml), 58.41 µM; in the assay with 3T3-L1 mouse adipocytes (1 μg/ml), 354 µM; with 3T3-L1 mouse adipocytes (10 μg/ml) it was 388 µM. Also, in the assay on 3T3-L1 mouse adipocytes (100 μg/ml), the “Lipolysis Activity measured as Glycerol” value was 498 µM.
Regarding “NDPEGVIY (H-[dN][dD][dP][dE]G[dV][dI][dY]-OH; SMILES CC[C@@H](C)[C@@H](NC(=O)[C@H](NC(=O)CNC(=O)[C@@H](CCC(=O)O)NC(=O)[C@H]1CCCN1C(=O)[C@@H](CC(=O)O)NC(=O)[C@H](N)CC(N)=O)C(C)C)C(=O)N[C@H](Cc1ccc(O)cc1)C(=O)O) [GP3D-DM6, N-term NH2, C-term COOH]”, the “Lipolysis Activity measured as Glycerol” value was 19.83 µM in assay [1] (25 μg/ml); 37.09 µM in assay [1] (50 μg/ml); 48.37 µM in assay [1] (75 μg/ml); 55.19 µM in assay [1] (100 μg/ml); 304 µM in the assay with 3T3-L1 mouse adipocytes (1 μg/ml); 405 µM with 3T3-L1 mouse adipocytes (100 μg/ml).
As to “DPEGVI (H-[dD][dP][dE]G[dV][dI]-OH; SMILES CC[C@@H](C)[C@@H](NC(=O)[C@H](NC(=O)CNC(=O)[C@@H](CCC(=O)O)NC(=O)[C@H]1CCCN1C(=O)[C@H](N)CC(=O)O)C(C)C)C(=O)O) [GP3D-6 I II IX X, N-term NH2, C-term COOH]”, the “Lipolysis Activity measured as Glycerol” value in assay [1] (25 μg/ml) is 17.01 µM; in assay [1] (50 μg/ml), 40.79 µM; in assay [1] (75 μg/ml), 43.36 µM; in assay [1] (100 μg/ml), 53.13 µM; with 3T3-L1 mouse adipocytes (1 μg/ml), 326 µM; with 3T3-L1 mouse adipocytes (10 μg/ml), 300 µM. Also, the “Lipolysis Activity measured as Glycerol” value in the assay on 3T3-L1 mouse adipocytes (100 μg/ml) was found to be 368 µM.
As to “DPEGLFY (H-[dD][dP][dE]G[dL][dF][dY]-OH; SMILES CC(C)C[C@@H](NC(=O)CNC(=O)[C@@H](CCC(=O)O)NC(=O)[C@H]1CCCN1C(=O)[C@H](N)CC(=O)O)C(=O)N[C@H](Cc1ccccc1)C(=O)N[C@H](Cc1ccc(O)cc1)C(=O)O) [GP3D-DM2, N-term NH2, C-term COOH]”, the “Lipolysis Activity measured as Glycerol” value worked out at 15.77 µM in assay [1] (25 μg/ml); 34.83 µM in assay [1] (50 μg/ml); 48.40 µM in assay [1] (75 μg/ml); 52.24 µM in assay [1] (100 μg/ml); 303 µM in the assay on 3T3-L1 mouse adipocytes (1 μg/ml).
Turning to `Cn1c(=O)c2c(ncn2C)n(C)c1=O` [Caffeine], the figures for the “Lipolysis Activity measured as Glycerol” value (in assay [1] (100 μg/ml); in the assay with 3T3-L1 mouse adipocytes (100 μg/ml)) were 35.53 µM and 297 µM, respectively. Also, the “lipolytic activity at 120'” value in assay [2] (120', 10 μg/ml) is “neither caffeine nor the comparative peptide, at the same dose, provided any significant activity at that time”. For the same compound, the “Lipolytic activity measured” value in assay [2] (120 min) is reported as −3.0856 UM; in assay [2] (240 min), 17.1602 UM.
Take “WDPEGLY (H-[dW][dD][dP][dE]G[dL][dY]-OH; SMILES CC(C)C[C@@H](NC(=O)CNC(=O)[C@@H](CCC(=O)O)NC(=O)[C@H]1CCCN1C(=O)[C@@H](CC(=O)O)NC(=O)[C@H](N)Cc1c[nH]c2ccccc12)C(=O)N[C@H](Cc1ccc(O)cc1)C(=O)O) [GP3D-DM1, N-term NH2, C-term COOH]”: the “Lipolysis Activity measured as Glycerol” value in assay [1] (25 μg/ml) stood at 15.94 µM; in assay [1] (50 μg/ml), 32.98 µM; in assay [1] (75 μg/ml), 37.78 µM; in assay [1] (100 μg/ml) it was 40.28 µM; in the assay with 3T3-L1 mouse adipocytes (1 μg/ml) it was 356 µM; with 3T3-L1 mouse adipocytes (10 μg/ml), 477 µM. The “Lipolysis Activity measured as Glycerol” value in the assay on 3T3-L1 mouse adipocytes (100 μg/ml) is 324 µM.
